Experimental data as given in patent publication US9451775B2, “Heterocyclic compounds as pesticides” (Bayer Intellectual Property GmbH, priority 2008, dated 2016).
Like-named read-outs stand apart in the source and are kept apart here.

Experiment: logP determination by HPLC (formic acid method)
Assay type: physicochemical
Details: for chromatographic logP: read-out: logP (HCOOH)
Protocol: 1) Description of the method for determining the logP values (formic acid method)
The logP values given in the table were determined in accordance with EEC Directive 79/831 Annex V.A8 by HPLC (High Performance Liquid Chromatography) on a reversed-phase column (C18). Temperature: 55° C.
Mobile phases for the determination in the acidic range (pH 3.4):
Mobile phase A: Acetonitrile+1 ml of formic acid/litre. Mobile phase B: water+0.9 ml of formic acid/litre.
Gradient: from 10% mobile phase A/90% mobile phase B to 95% mobile phase A/5% mobile phase B in 4.25 min.
Calibration was carried out using unbranched alkan-2-ones (having 3 to 16 carbon atoms) with known logP values (determination of the logP values by the retention times using linear interpolation between two successive alkanones). The lambda max values were determined in the maxima of the chromatographic signals using the UV spectra from 200 nm to 400 nm.

[1] = reversed-phase HPLC column (C18), pH 3.4, values printed in the text of the preparation examples, formic acid method
[2] = pH 3.4, values given in the preparation examples, formic acid method
[3] = reversed-phase HPLC column (C18), pH 3.4, HPLC on reversed-phase column (C18), acidic range (pH 3.4), 55° C.

Structure (SMILES): CC(=O)c1cc(-c2cccnc2)nn1C
- chromatographic logP [1]: 0.61

Structure (SMILES): CN(C)/C=C/C(=O)c1cc(-c2cccnc2)nn1C
- chromatographic logP [1]: 0.6

Structure (SMILES): COC(=O)c1cc(-c2cccnc2)nn1C (single isomer, unassigned) [drawing 76 isomer 1]
- chromatographic logP [2]: 0.84

Structure (SMILES): COC(=O)c1cc(-c2cccnc2)n(C)n1 (single isomer, unassigned) [drawing 76 isomer 2]
- chromatographic logP [2]: 0.77

Structure (SMILES): CC(=O)c1sc(-c2cccnc2)nc1C [1-(4-Methyl-2-pyridin-3-ylthiazol-5-yl)ethanone]
- logP (HCOOH) (values given in the preparation examples, formic acid method): 1.5

Structure (SMILES): CC(=O)c1nnc(-c2cccnc2)s1 [1-(5-Pyridin-3-yl-[1,3,4]thiadiazol-2-yl)ethanone]
- chromatographic logP [1]: 1.16

Structure (SMILES): Cc1nc(-c2cccnc2)sc1-c1cccc(Cl)n1 [2-Chloro-6-(4-methyl-2-pyridin-3-ylthiazol-5-yl)pyridine]
- chromatographic logP [1]: 2.66

Structure (SMILES): CC(=O)c1sc(-c2cccnc2)nc1C [3-(5-Acetyl-4-methylthiazol-2-yl)pyridinium chloride]
- chromatographic logP [1]: 1.48

Structure (SMILES): Cc1nc(-c2cccnc2)sc1Br [3-(5-Bromo-4-methylthiazol-2-yl)pyridine]
- chromatographic logP [1]: 2.3

Structure (SMILES): Brc1cccc(C2=NOCCO2)n1 [3-(6-Bromopyridin-2-yl)-5,6-dihydro-[1,4,2]dioxazine]
- chromatographic logP [1]: 1.37

Structure (SMILES): Cc1nc(-c2cccnc2)sc1C(=O)/C=C/N(C)C [3-Dimethylamino-1-(4-methyl-2-pyridin-3-ylthiazol-5-yl)propenone]
- chromatographic logP [1]: 1.35

Structure (SMILES): c1cncc(-c2nccs2)c1 [3-Thiazol-2-ylpyridine]
- chromatographic logP [1]: 0.62

Structure (SMILES): c1cncc(-c2nncs2)c1 [3-[1,3,4]Thiadiazol-2-ylpyridine]
- chromatographic logP [1]: 0.15

Structure (SMILES): Cc1nc(-c2cccnc2)sc1-c1cc[nH]n1 [3-[4-Methyl-5-(1H-pyrazol-3-yl)thiazol-2-yl]pyridine]
- chromatographic logP [1]: 1.31

Structure (SMILES): Cc1nc(-c2cccnc2)sc1C(=O)NN(CCO)c1ncccn1 [4-Methyl-2-pyridin-3-ylthiazole-5-carboxylic acid N-(hydroxyethyl)-N-pyrimidin-2-ylhydrazide]
- chromatographic logP [1]: 1.08

Structure (SMILES): Cc1nc(-c2cccnc2)sc1-c1cccc(C#N)n1 [6-(4-Methyl-2-pyridin-3-ylthiazol-5-yl)pyridine-2-carbonitrile]
- chromatographic logP [1]: 2.11

Structure (SMILES): Cc1nc(-c2cccnc2)sc1-c1cccc(C(N)=S)n1 [6-(4-Methyl-2-pyridin-3-ylthiazol-5-yl)pyridine-2-carbothioamide]
- chromatographic logP [1]: 2.13

Structure (SMILES): O=C(NO)c1cccc(Br)n1 [6-Bromopyridine-2-carboxylic acid hydroxyamide]
- chromatographic logP [1]: 0.69

Structure (SMILES): CN(C)/C=C/C(=O)c1nnc(-c2cccnc2)s1 [(3-Dimethylamino-1-(5-pyridin-3-yl-[1,3,4]thiadiazol-2-yl)propenone]
- chromatographic logP [1]: 1.05

Structure (SMILES): CCOC(=O)C(=O)NNC(=O)c1cccnc1 [Ethyl oxo-[N′-(pyridin-3-carbonyl)hydrazino]acetate]
- chromatographic logP [1]: -0.13

Structure (SMILES): Cc1nc(-c2cccnc2)sc1-c1nc(-c2ccccn2)cs1 [compound 172]
- chromatographic logP [3]: 2.53

Structure (SMILES): Cc1cccc(-c2csc(-c3sc(-c4cccnc4)nc3C)n2)n1 [compound 173]
- chromatographic logP [3]: 2.66

Structure (SMILES): CNc1nc(-c2sc(-c3cccnc3)nc2C)cs1 [compound 174]
- chromatographic logP [3]: 1.76

Structure (SMILES): Cc1nc(-c2cccnc2)sc1-c1nc(C(=O)NCC(F)(F)F)cs1 [compound 175]
- chromatographic logP [3]: 2.23

Structure (SMILES): COc1cc(OC)nc(-c2nc(-c3sc(-c4cccnc4)nc3C)cs2)n1 [compound 176]
- chromatographic logP [3]: 3.21

Structure (SMILES): Cc1nc(-c2cccnc2)sc1-c1csc(-c2cccnc2)n1 [compound 177]
- chromatographic logP [3]: 2.19

Structure (SMILES): Clc1cccc(-c2cnc(-c3cccnc3)s2)n1 [compound 178]
- chromatographic logP [3]: 2.43

Structure (SMILES): Cc1nc(-c2cncnc2)sc1-c1ccnc(-c2ncccn2)n1 [compound 179]
- chromatographic logP [3]: 1.06

Structure (SMILES): c1cncc(-c2ncc(-c3cccc(-c4nccnn4)n3)s2)c1 [compound 180]
- chromatographic logP [3]: 1.43

Structure (SMILES): CN1CCOC(c2cccc(-c3cnc(-c4cccnc4)s3)n2)=N1 [compound 181]
- chromatographic logP [3]: 1.82

Structure (SMILES): c1cncc(-c2ncc(-c3cccc(-c4ncon4)n3)s2)c1 [compound 182]
- chromatographic logP [3]: 1.74

Structure (SMILES): c1cncc(-c2ncc(-c3cccc(-c4nc[nH]n4)n3)s2)c1 [compound 183]
- chromatographic logP [3]: 1.24

Structure (SMILES): CS(=O)(=O)c1cccc(-c2cnc(-c3cccnc3)s2)n1 [compound 184]
- chromatographic logP [3]: 1.44

Structure (SMILES): Cc1cc(-c2sc(-c3cncc(F)c3)nc2C)nc(-c2ncccn2)n1 [compound 185]
- chromatographic logP [3]: 1.68

Structure (SMILES): Cc1nc(-c2cncc(F)c2)sc1-c1ccnc(-c2ncccn2)n1 [compound 186]
- chromatographic logP [3]: 1.63

Structure (SMILES): c1cncc(-c2ncc(-c3cccc(-n4cccn4)n3)s2)c1 [compound 187]
- chromatographic logP [3]: 2.53

Structure (SMILES): Cc1cnn(-c2cccc(-c3cnc(-c4cccnc4)s3)n2)c1 [compound 188]
- chromatographic logP [3]: 3.08

Structure (SMILES): Cc1ccn(-c2cccc(-c3cnc(-c4cccnc4)s3)n2)n1 [compound 189]
- chromatographic logP [3]: 2.85

Structure (SMILES): Cn1nc(-c2cccnc2)cc1-c1cccc(Br)n1 [compound 190]
- chromatographic logP [3]: 1.67

Structure (SMILES): Cn1nc(-c2cccnc2)cc1-c1cccc(-c2ncccn2)n1 [compound 192]
- chromatographic logP [3]: 1.12

Structure (SMILES): CNc1nccc(-c2sc(-c3cccnc3)nc2C)n1 [compound 193]
- chromatographic logP [3]: 1.41

Structure (SMILES): Cc1nc(-c2cccnc2)sc1-c1ccnc(N(C)C)n1 [compound 194]
- chromatographic logP [3]: 2.15

Structure (SMILES): Cc1nc(-c2cccnc2)sc1-c1ccn(-c2nc(Cl)ns2)n1 [compound 195]
- chromatographic logP [3]: 3.76

Structure (SMILES): COCCNC(=S)n1ccc(-c2sc(-c3cccnc3)nc2C)n1 [compound 196]
- chromatographic logP [3]: 3.01

Structure (SMILES): Cc1cc(C)nc(-c2nc(-c3sc(-c4cccnc4)nc3C)cs2)n1 [compound 197]
- chromatographic logP [3]: 2.58

Structure (SMILES): c1cncc(-c2ncc(-c3cccc(-n4ccnc4)n3)s2)c1 [compound 199]
- chromatographic logP [3]: 0.93

Structure (SMILES): CN(C)c1cccc(-c2cnc(-c3cccnc3)s2)n1 [compound 200]
- chromatographic logP [3]: 2.83

Structure (SMILES): Cc1nccn1-c1cccc(-c2cnc(-c3cccnc3)s2)n1 [compound 201]
- chromatographic logP [3]: 0.89

Structure (SMILES): c1cncc(-c2ncc(-c3cccc(-n4cccc4)n3)s2)c1 [compound 202]
- chromatographic logP [3]: 3.13

Structure (SMILES): c1cncc(-c2ncc(-c3cccc(C4OCCCO4)n3)s2)c1 [compound 203]
- chromatographic logP [3]: 1.99

Structure (SMILES): O=C1CCCCN1c1cccc(-c2cnc(-c3cccnc3)s2)n1 [compound 204]
- chromatographic logP [3]: 1.87

Structure (SMILES): c1cncc(-c2ncc(-c3cccc(C4OCCO4)n3)s2)c1 [compound 205]
- chromatographic logP [3]: 1.82

Structure (SMILES): O=C1CCCN1c1cccc(-c2cnc(-c3cccnc3)s2)n1 [compound 206]
- chromatographic logP [3]: 2.11

Structure (SMILES): c1cncc(-c2ncc(-c3cnc(-c4cccnc4)s3)s2)c1 [compound 217]
- chromatographic logP [3]: 1.43

Structure (SMILES): Cn1nc(-c2cccnc2)cc1-c1cccnc1 [compound 218]
- chromatographic logP [3]: 0.89

Structure (SMILES): Nc1cccc(-c2cnc(-c3cccnc3)s2)n1 [compound 219]
- chromatographic logP [3]: 0.92

Structure (SMILES): CN(C)C(=O)c1cccc(-c2nnc(-c3cccnc3)s2)n1 [compound 221]
- chromatographic logP [3]: 1.34

Structure (SMILES): CC(F)(F)c1ccc(-c2cnc(-c3cccnc3)s2)nc1 [compound 223]
- chromatographic logP [3]: 2.46

Structure (SMILES): CC(F)(F)c1cccc(-c2cnc(-c3cccnc3)s2)n1 [compound 224]
- chromatographic logP [3]: 2.77

Structure (SMILES): COC(OC)c1cccc(-c2cnc(-c3cccnc3)s2)n1 [compound 225]
- chromatographic logP [3]: 2.08

Structure (SMILES): Cn1nc(-c2cccnc2)cc1-c1cccnc1Cl [compound 226]
- chromatographic logP [3]: 0.98

Structure (SMILES): Cn1nc(-c2cccnc2)cc1-c1cncc(C#N)c1 [compound 227]
- chromatographic logP [3]: 0.89

Structure (SMILES): Cn1nc(-c2cccnc2)cc1-c1cncc(F)c1 [compound 228]
- chromatographic logP [3]: 0.89

Structure (SMILES): CON(C)C(=O)c1csc(-c2sc(-c3cccnc3)nc2C)n1 [compound 229]
- chromatographic logP [3]: 1.78

Structure (SMILES): Cc1nc(-c2cccnc2)sc1-c1nc(C(=O)NC(C)C2CC2)cs1 (stereo not drawn) [compound 233]
- chromatographic logP [3]: 2.69

Structure (SMILES): Cc1nc(-c2cccnc2)sc1-c1nc(C(=O)NC(C)(C)C)cs1 [compound 234]
- chromatographic logP [3]: 2.93

Structure (SMILES): Cc1nc(-c2cccnc2)sc1-c1nc(C(=O)NCC(F)(F)C(F)F)cs1 [compound 235]
- chromatographic logP [3]: 2.38

Structure (SMILES): Cc1nc(-c2cccnc2)sc1-c1nc(C(=O)N2CCCCC2)cs1 [compound 236]
- chromatographic logP [3]: 2.38

Structure (SMILES): Cc1nc(-c2cccnc2)sc1-c1nc(C(=O)N2CCCC2)cs1 [compound 237]
- chromatographic logP [3]: 2.05

Structure (SMILES): Cc1nc(-c2cccnc2)sc1-c1nc(C(=O)N(C)CC(F)(F)F)cs1 [compound 238]
- chromatographic logP [3]: 2.53

Structure (SMILES): O=C(NCC(F)(F)F)c1cccc(-c2nnc(-c3cccnc3)s2)n1 [compound 241]
- chromatographic logP [3]: 2.07

Structure (SMILES): Cc1nc(-c2cccnc2)sc1-c1nc(C(=O)N2CCCO2)cs1 [compound 242]
- chromatographic logP [3]: 1.61

Structure (SMILES): Cc1nc(-c2cccnc2)sc1-c1nc(C(=O)N(C)C)cs1 [compound 243]
- chromatographic logP [3]: 1.67

Structure (SMILES): COC(=O)c1cccc(-c2cnc(-c3cccnc3)s2)n1 [compound 244]
- chromatographic logP [3]: 1.77

Structure (SMILES): CCOc1ccc(-c2cc(-c3cccnc3)nn2C)cn1 [compound 245]
- chromatographic logP [3]: 1.46

Structure (SMILES): COc1ccc(-c2cc(-c3cccnc3)nn2C)cn1 [compound 246]
- chromatographic logP [3]: 1.14

Structure (SMILES): Cc1nc(-c2cccnc2)sc1-c1nc(C(=O)N2CCOCC2)cs1 [compound 247]
- chromatographic logP [3]: 1.66

Structure (SMILES): CCN(C)C(=O)c1cccc(-c2nnc(-c3cccnc3)s2)n1 [compound 248]
- chromatographic logP [3]: 1.54
